Test results as given in patent publication US8569487B2, “Pyridazine compound and use thereof” (priority 2006, dated 2013).
Read-outs that look alike come from different tables or passages of the source.

Experiments:
[1] = system: HCV genotype 1b (Con-1/lucneo) replicon; assay type: cell-based
Procedure: (§1) HCV genotype 1b (Con-1/lucneo) and 1a (H77/neo) replicon cells were incubated with serial dilutions of compound (1) 2′C-methyl adenosine (2′CMeA) or IFNα for 3 days in the absence or presence of 40 mg/mL human serum albumin (HSA).

[2] = system: HCV genotype 1a (H77/neo) replicon; assay: HCV genotype 1a (H77/neo) replicon, quantitative real-time PCR assay; assay type: cell-based; conditions: 3 days, absence of HSA
Procedure: as §1

[3] = system: HCV genotype 2a subgenomic replicon; assay: HCV genotype 2a subgenomic replicon in Huh-7 cells, NS3 protease activity readout; assay type: cell-based
Procedure: (§2) The antiviral activity of compound (1) against HCV genotype 2a was tested in cells chronically infected with the genotype 2a virus as well as in cells replicating a subgenomic 2a replicon. Huh-7 cells containing chronically replicating HCV genotype 2a (J6/JFH-Rluc) virus or subgenomic replicons were cultured with compound (1) or 2′CMeA for 3 days in the absence of human serum albumin. After cultivation, the amount of luciferase in 2a-virus containing cells and HCV NS3 protease activity in the 2a replicon-containing cells was determined using Promega's luciferase assay and a novel time-resolved fluorescence assay, respectively.

[4] = system: HCV genotype 2a (J6/JFH-Rluc) virus; assay: Huh-7 cells chronically infected with HCV genotype 2a (J6/JFH-Rluc) virus, luciferase assay; assay type: cell-based; conditions: 3 days, absence of HSA
Procedure: as §2

[5] = system: Huh-7 lucneo cells; assay: Cytotoxicity, CellTiter-Glo Luminescence Cell Viability assay, Huh-7 lucneo; assay type: cell-based
[6] = system: SL3 cells; assay: Cytotoxicity, CellTiter-Glo Luminescence Cell Viability assay, SL3; assay type: cell-based; conditions: HCV replicon-containing cell line
[7] = system: MH4 cells; assay: Cytotoxicity, CellTiter-Glo Luminescence Cell Viability assay, MH4; assay type: cell-based; conditions: HCV replicon-containing cell line
[8] = system: HepG2 cells; assay: Cytotoxicity, CellTiter-Glo Luminescence Cell Viability assay, HepG2; assay type: cell-based
[9] = system: MT4 cells; assay: Cytotoxicity, CellTiter-Glo Luminescence Cell Viability assay, MT4; assay type: cell-based
[10] = system: HCV replicon cells; assay: In vitro combination study with IFN-α in replicon cells (MacSynergy); assay type: cell-based; conditions: MacSynergy analysis
Procedure: Pegylated interteron-α (PEG-IFN-α), in combination with ribavirin, represents the current standard of care for HCV-infected patients. In vitro combination studies of compound (1) and IFN-α were performed in replicon cells. Data was analyzed using the MacSynergy template developed by Prichard and Shipman.

[11] = Phase-1 first-in-human trial, pharmacokinetics; assay type: in vivo
Procedure: (§3) A randomized, double-blind, placebo controlled trial was designed to evaluate the safety/tolerability, phamacokinetics and antiviral activity of single (in Part A) and multiple (in Part B) doses of Compound (1) (oleic acid solution, above) in subjects chronically infected with HCV genotype 1 (GT-1) without decompensated cirrhosis.
(§4) In ongoing Part B, four successive cohorts of 12 subjects are randomized (10:2) to receive multiple ascending doses of Compound 1 (40 mg BID, 120 mg BID, 240 mg QD, 240 mg BID) or placebo, over 8 days.

[12] = system: HCV genotype 1; assay: Phase-1 first-in-human trial, antiviral activity (HCV RNA decline); assay type: in vivo; conditions: following single-dose exposure
Procedure: as §3, §4

[13] = Phase-1 first-in-human trial, safety/tolerability; assay type: in vivo
Procedure: as §3, §4

[14] = Intrinsic solubility and pH solubility profile; assay type: physicochemical; conditions: pH 7.3
[15] = system: HCV replicon; assay: Anti-HCV replicon activity compared with prior art compound of formula (4); assay type: cell-based
Description: The anti-HCV replicon activity of compound (1) was compared to that of a prior art (WO 05/063744) compound, the compound of formula (4)

[16] = non-replicon-containing cell line

C[C@@]1(O)[C@H](O)[C@@H](CO)O[C@H]1n1cnc2c(N)ncnc21 [2′CMeA, 2′C-methyl adenosine, reference compound]
EC50 ([1]; 3 days, absence of HSA, read-out: EC50 HCV 1b-lucneo (subgenomic replicon)): 0.175 ± 0.07 µM | EC50 ([1]; read-out: EC50 HCV 1b-lucneo 40 mg/mL HSA, 3 days, presence of 40 mg/mL human serum albumin): 0.25 µM | EC50 [2]: 0.17 µM | EC50 ([3]; Huh-7 cells, 3 days, absence of HSA, read-out: EC50 HCV 2a (subgenomic replicon)): 1.61 ± 1.1 µM | EC50 ([4]; read-out: EC50 HCV-2a (reporter virus)): 0.194 ± 0.026 µM | CC50 ([5]; HCV replicon-containing cell line): 7.2 ± 6 µM | CC50 [6]: 3.9 µM | CC50 [7]: 16 µM | CC50 [8, 16]: 24.3 ± 2.1 µM | CC50 [9, 16]: 3.5 ± 1.9 µM

Fc1ccccc1-c1nc2ccn(Cc3ccc(-c4ccc(C(F)(F)F)cc4C(F)(F)F)nn3)cc-2n1 [Compound 1, 5-({6-[2,4-bis(trifluoromethyl)phenyl]pyridazin-3-yl}methyl)-2-(2-fluorophenyl)-5H-imidazo[4,5-c]pyridine]
selectivity index (CC50/EC50) ([1]; CC50 in cell lines versus EC50 in HCV-1b and HCV-1a replicons): 13,000-80,000 | EC50 ([3]; Hepatitis C virus, 72 h, Huh-7 cells, 3 days, absence of HSA, read-out: EC50 HCV 2a (subgenomic replicon)): 21.9 ± 19 µM | EC50 ([3]; Hepatitis C virus, Huh-7, 72 h, read-out: EC50 2a subgenomic replicon model): 21.9 µM | anti-HCV replicon activity against genotype 2a ([3]; compared with genotypes 1a and 1b): substantially less active | toxic effects at the highest concentration tested ([5]; 50 μM, any of the cell lines Huh-7, SL3, MH4, HepG2, MT4): No toxic effects | cytotoxicity in Huh-7 cells ([5]; human, Huh-7 lucneo cells (HCV replicon-containing)): > 50,000 nM | CC50 [6]: > 50 µM | CC50 [7]: > 50 µM | cytotoxicity in HepG2 cells ([8]; human): > 50,000 nM | cytotoxicity in MT4 cells ([9]; human): > 50,000 nM | interaction between compound (1) and IFN-α [10]: additive interaction | mean concentration 24 hours after dosing relative to protein binding adjusted in vitro HCV GT-1b Replicon EC50 ([11]; 240 mg fasted single dose): ~7 fold | increase of systemic exposure when administered with a high fat meal ([11]; HCV GT-1 infected subjects, single dose with food versus fasted): approximately 2 fold | time of maximal antiviral effect [12]: 24 h | tolerability of single doses ([13]; single doses 40-480 mg, HCV GT-1 infected subjects, no serious or treatment-limiting adverse events): well tolerated | treatment emergent laboratory abnormalities ([13]; single doses, Part A): no Grade 3 or 4 treatment emergent laboratory abnormalities | most common adverse event ([13]; single doses, Part A, all AEs mild except one moderate headache): headache | pH solubility profile, geometric mean (3 lots) [14]: 0.7 micrograms/ml | times more potent than the compound of formula (4) [15]: about 330 times

IFN-α
EC50 HCV 1b-lucneo (subgenomic replicon) ([1]; 3 days, absence of HSA): 2 IU/mL | EC50 HCV-2a (reporter virus) [4]: 1.2 IU/mL
